# Measurements: patent US9650361B2, “N-(pyridin-2-yl)pyrimidin-4-amine derivatives containing a sulfoximine group” (BAYER PHARAM AKTIENGESELLSCHAFT, priority 2012, dated 2017)
# Read-outs that look alike come from different tables or passages of the source.
# Experiments:
# [1] = test system: A2780 cells; test: Proliferation assay, A2780 (Method 3); type: cell-based, human; conditions: 4 days, crystal violet, read-out: Inhibition of A2780 cell proliferation IC50
# Protocol: (§1) Cultivated tumour cells (HeLa, human cervical tumour cells, ATCC CCL-2; NCI-H460, human non-small cell lung carcinoma cells, ATCC HTB-177; A2780, human ovarian carcinoma cells, ECACC #93112519; DU 145, hormone-independent human prostate carcinoma cells, ATCC HTB-81; HeLa-MaTu-ADR, multidrug-resistant human cervical carcinoma cells, EPO-GmbH Berlin; Caco-2, human colorectal carcinoma cells, ATCC HTB-37; B16F10, mouse melanoma cells, ATCC CRL-6475) were plated at a density of 5,000 cells/well (DU145, HeLa-MaTu-ADR), 3,000 cells/well (NCI-H460, HeLa), 2,500 cells/well (A2780), 1,500 cells/well (Caco-2), or 1,000 cells/well (B16F10) in a 96-well multititer plate in 200 μL of their respective growth medium supplemented 10% fetal calf serum. After 24 hours, the cells of one plate (zero-point plate) were stained with crystal violet (see below), while the medium of the other plates was replaced by fresh culture medium (200 μl), to which the test substances were added in various concentrations (0 μM, as well as in the range of 0.001-10 μM; the final concentration of the solvent dimethyl sulfoxide was 0.5%). The cells were incubated for 4 days in the presence of test substances. Cell proliferation was determined by staining the cells with crystal violet: the cells were fixed by adding 20 μl/measuring point of an 11% glutaric aldehyde solution for 15 minutes at room temperature. After three washing cycles of the fixed cells with water, the plates were dried at room temperature. The cells were stained by adding 100 μl/measuring point of a 0.1% crystal violet solution (pH 3.0). After three washing cycles of the stained cells with water, the plates were dried at room temperature. The dye was dissolved by adding 100 μl/measuring point of a 10% acetic acid solution. The extinction was determined by photometry at a wavelength of 595 nm. The change of cell number, in percent, was calculated by normalization of the measured values to the extinction values of the zero-point plate (=0%) and the extinction of the untreated (0 μm) cells (=100%). The IC50 values (inhibitory concentration at 50% of maximal effect) were determined by means of a 4 parameter fit.
# [2] = biological target: T1, CDK9/CycT1 (Homo sapiens, UniProt P50750); test: CDK9/CycT1 kinase assay (Method 1a); type: biochemical; conditions: 10 μM ATP
# T1 construct: Recombinant full-length His-tagged human CDK9 and CycT1; His; purchased Invitrogen PV4131; host or cells: insect cells
# T1 sequence (P50750 whole entry): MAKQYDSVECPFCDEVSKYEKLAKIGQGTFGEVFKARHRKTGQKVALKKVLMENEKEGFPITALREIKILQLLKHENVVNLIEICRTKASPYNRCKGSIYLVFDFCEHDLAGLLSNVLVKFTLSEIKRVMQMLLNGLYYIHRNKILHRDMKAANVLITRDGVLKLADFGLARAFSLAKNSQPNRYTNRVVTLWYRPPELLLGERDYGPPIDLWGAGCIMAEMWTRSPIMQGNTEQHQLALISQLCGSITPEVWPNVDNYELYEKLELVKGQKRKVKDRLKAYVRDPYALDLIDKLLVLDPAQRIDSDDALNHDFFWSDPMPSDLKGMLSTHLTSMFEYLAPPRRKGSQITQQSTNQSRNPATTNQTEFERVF
# T1 sequence (O60563 whole entry partner): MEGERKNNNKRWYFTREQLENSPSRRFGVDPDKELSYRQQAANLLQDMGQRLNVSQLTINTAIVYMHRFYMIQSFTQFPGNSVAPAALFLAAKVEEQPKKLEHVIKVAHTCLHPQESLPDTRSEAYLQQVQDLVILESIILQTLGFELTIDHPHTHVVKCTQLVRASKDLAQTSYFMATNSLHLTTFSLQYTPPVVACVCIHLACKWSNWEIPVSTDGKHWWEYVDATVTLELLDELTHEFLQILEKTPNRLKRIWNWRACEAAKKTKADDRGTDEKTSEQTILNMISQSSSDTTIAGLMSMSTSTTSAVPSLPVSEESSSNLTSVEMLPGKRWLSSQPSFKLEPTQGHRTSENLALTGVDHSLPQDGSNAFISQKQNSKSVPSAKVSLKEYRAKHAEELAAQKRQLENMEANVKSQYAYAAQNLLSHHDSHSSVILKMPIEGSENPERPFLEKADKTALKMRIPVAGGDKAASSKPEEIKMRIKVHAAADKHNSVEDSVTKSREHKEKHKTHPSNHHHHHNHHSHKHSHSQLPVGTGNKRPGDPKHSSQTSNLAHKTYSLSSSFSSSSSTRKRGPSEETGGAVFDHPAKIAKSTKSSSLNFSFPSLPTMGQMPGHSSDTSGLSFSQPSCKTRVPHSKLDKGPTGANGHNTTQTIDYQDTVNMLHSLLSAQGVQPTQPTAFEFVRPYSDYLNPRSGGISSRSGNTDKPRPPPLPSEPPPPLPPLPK
# Excerpt: 1a. CDK9/CycT1 Kinase Assay:
# CDK9/CycT1-inhibitory activity of compounds of the present invention was quantified employing the CDK9/CycT1 TR-FRET assay as described in the following paragraphs:
# Recombinant full-length His-tagged human CDK9 and CycT1, expressed in insect cells and purified by Ni-NTA affinity chromatography, were purchased from Invitrogen (Cat. No PV4131). As substrate for the kinase reaction biotinylated peptide biotin-Ttds-YISPLKSPYKISEG (C-terminus in amid form) was used which can be purchased e.g. form the company JERINI Peptide Technologies (Berlin, Germany) For the assay 50 nl of a 100 fold concentrated solution of the test compound in DMSO was pipetted into a black low volume 384 well microtiter plate (Greiner Bio-One, Frickenhausen, Germany), 2 μl of a solution of CDK9/CycT1 in aqueous assay buffer [50 mM Tris/HCl pH 8.0, 10 mM MgCl2, 1.0 mM dithiothreitol, 0.1 mM sodium ortho-vanadate, 0.01% (v/v) Nonidet-P40 (Sigma)] were added and the mixture was incubated for 15 min at 22° C. to allow pre-binding of the test compounds to the enzyme before the start of the kinase reaction. Then the kinase reaction was started by the addition of 3 μl of a solution of adenosine-tri-phosphate (ATP, 16.7 μM=>final conc. in the 5 μl assay volume is 10 μM) and substrate (1.67 μM=>final conc. in the 5 μl assay volume is 1 μM) in assay buffer and the resulting mixture was incubated for a reaction time of 25 min at 22° C. The concentration of CDK9/CycT1 was adjusted depending of the activity of the enzyme lot and was chosen appropriate to have the assay in the linear range, typical concentrations were in the range of 1 μg/ml. The reaction was stopped by the addition of 5 μl of a solution of TR-FRET detection reagents (0.2 μM streptavidine-XL665 [Cisbio Bioassays, Codolet, France] and 1 nM anti-RB(pSer807/pSer811)-antibody from BD Pharmingen [#558389] and 1.2 nM LANCE EU-W1024 labeled anti-mouse IgG antibody [Perkin-Elmer, product no. AD0077]) in an aqueous EDTA-solution (100 mM EDTA, 0.2% (w/v) bovine serum albumin in 100 mM HEPES/NaOH pH 7.0).
# The resulting mixture was incubated 1 h at 22° C. to allow the formation of complex between the phosphorylated biotinylated peptide and the detection reagents. Subsequently the amount of phosphorylated substrate was evaluated by measurement of the resonance energy transfer from the Eu-chelate to the streptavidine-XL. Therefore, the fluorescence emissions at 620 nm and 665 nm after excitation at 350 nm was measured in a HTRF reader, e.g. a Rubystar (BMG Labtechnologies, Offenburg, Germany) or a Viewlux (Perkin-Elmer). The ratio of the emissions at 665 nm and at […] was taken as the measure for the amount of phosphorylated substrate. The data were normalised (enzyme reaction without inhibitor=0% inhibition, all other assay components but no enzyme=100% inhibition).
# [3] = test system: MOLM-13 cells; test: Proliferation assay, MOLM-13 (Method 3); type: cell-based, human; conditions: 72-hour exposure, Cell Titre-Glo, read-out: Inhibition of MOLM 13 cell proliferation IC50
# Protocol: Non-adherent MOLM-13 human acute myeloid leukemia cells (DSMZ ACC 554) were seeded at a density of 5,000 cells/well in a 96-well multititer plate in 100 μL of growth medium supplemented 10% fetal calf serum. After 24 hours, cell viability of one plate (zero-point plate) was determined with the Cell Titre-Glo Luminescent Cell Viability Assay (Promega), while 50 μl of test compound containing medium was added to the wells of the other plates (final concentrations in the range of 0.001-10 μM and DMSO controls; the final concentration of the solvent dimethyl sulfoxide was 0.5%). Cell viability was assessed after 72-hour exposure with the Cell Titre-Glo Luminescent Cell Viability Assay (Promega). IC50 values (inhibitory concentration at 50% of maximal effect) were determined by means of a 4 parameter fit on measurement data which were normalized to vehicle (DMSO) treated cells (=100%) and measurement readings taken immediately before compound exposure (=0%).
# [4] = test system: B16F10 cells; test: Proliferation assay, B16F10 (Method 3); type: cell-based, mouse; conditions: 4 days, crystal violet, read-out: Inhibition of B16F10 cell proliferation IC50
# Protocol: as §1
# [5] = test system: Caco-2 cells; test: Proliferation assay, Caco-2 (Method 3); type: cell-based, human; conditions: 4 days, crystal violet, read-out: Inhibition of Caco-2 cell proliferation IC50
# Protocol: as §1
Compound,IC50 [1],IC50 [2],IC50 [3],"IC50 ([4]; Mus musculus, B16-F10, 96 h)","IC50 ([1]; Homo sapiens, A2780, 96 h)","IC50 ([3]; Homo sapiens, MOLM-13, 72 h)","IC50 ([5]; Homo sapiens, Caco-2, 96 h)",IC50 [4],IC50 [5]
"COc1cc(F)ccc1-c1cc(Nc2cc(CS(C)(=N)=O)ccn2)ncn1 (single isomer, unassigned) [Example 3, 6-(4-Fluoro-2-methoxyphenyl)-N-{4-[(S-methylsulfonimidoyl)methyl]pyridin-2-yl}pyrimidin-4-amine]",0.126 µM,0.004 µM,0.08 µM,,,,,,
"COc1cc(F)ccc1-c1cc(Nc2cc(CS(C)(=N)=O)ccn2)ncn1 (single isomer, unassigned) [Example 2, 6-(4-Fluoro-2-methoxyphenyl)-N-{4-[(S-methylsulfonimidoyl)methyl]pyridin-2-yl}pyrimidin-4-amine]",,0.009 µM,0.189 µM,,0.193 µM,,,,
"COc1cc(F)ccc1-c1cc(Nc2cc(CS(C)(=N)=O)cc(Cl)n2)ncn1 (racemic) [Example 4, (rac)-N-{6-Chloro-4-[(S-methylsulfonimidoyl)methyl]pyridin-2-yl}-6-(4-fluoro-2-methoxyphenyl)pyrimidin-4-amine]",,0.004 µM,,0.215 µM,0.062 µM,0.047 µM,0.145 µM,,
"COc1cc(F)ccc1-c1cc(Nc2cc(CS(C)(=N)=O)cc(Cl)n2)ncn1 (single isomer, unassigned) [Example 5, N-{6-Chloro-4-[(S-methylsulfonimidoyl)methyl]pyridin-2-yl}-6-(4-fluoro-2-methoxyphenyl)pyrimidin-4-amine]",,0.005 µM,,0.122 µM,0.034 µM,0.033 µM,0.166 µM,,
"COc1cc(F)ccc1-c1cc(Nc2cc(CS(C)(=N)=O)ccn2)ncn1 (racemic) [Example 1, (rac)-6-(4-Fluoro-2-methoxyphenyl)-N-{4-[(S-methylsulfonimidoyl)methyl]pyridin-2-yl}pyrimidin-4-amine]",,0.005 µM,,0.488 µM,0.06 µM,,0.537 µM,,

# Other lines, results leading:
IC50 [1],IC50 [2],IC50 [3],"IC50 ([4]; Mus musculus, B16-F10, 96 h)","IC50 ([1]; Homo sapiens, A2780, 96 h)","IC50 ([3]; Homo sapiens, MOLM-13, 72 h)","IC50 ([5]; Homo sapiens, Caco-2, 96 h)",IC50 [4],IC50 [5],Compound
,0.005 µM,,0.1 µM,0.032 µM,0.032 µM,0.116 µM,,,"COc1cc(F)ccc1-c1cc(Nc2cc(CS(C)(=N)=O)cc(C(F)(F)F)n2)ncn1 (racemic) [Example 10, (rac)-6-(4-Fluoro-2-methoxyphenyl)-N-{4-[(S-methylsulfonimidoyl)methyl]-6-(trifluoromethyl)pyridin-2-yl}pyrimidin-4-amine]"
0.039 µM,0.004 µM,0.043 µM,,,,,0.205 µM,0.212 µM,"COc1cc(F)ccc1-c1cc(Nc2cc(CS(C)(=N)=O)cc(C)n2)ncn1 (single isomer, unassigned) [Example 9, 6-(4-Fluoro-2-methoxyphenyl)-N-{6-methyl-4-[(S-methylsulfonimidoyl)methyl]pyridin-2-yl}pyrimidin-4-amine]"
,0.005 µM,,0.216 µM,0.035 µM,0.053 µM,0.23 µM,,,"COc1cc(F)ccc1-c1cc(Nc2cc(CS(C)(=N)=O)cc(C)n2)ncn1 (racemic) [Example 7, (rac)-6-(4-Fluoro-2-methoxyphenyl)-N-{6-methyl-4-[(S-methylsulfonimidoyl)methyl]pyridin-2-yl}pyrimidin-4-amine]"
0.039 µM,0.004 µM,0.044 µM,,,,,0.123 µM,0.177 µM,"COc1cc(F)ccc1-c1cc(Nc2cc(CS(C)(=N)=O)cc(Cl)n2)ncn1 (single isomer, unassigned) [Example 6, N-{6-Chloro-4-[(S-methylsulfonimidoyl)methyl]pyridin-2-yl}-6-(4-fluoro-2-methoxyphenyl)pyrimidin-4-amine]"
,0.004 µM,,0.284 µM,0.036 µM,0.064 µM,0.246 µM,,,"COc1cc(F)ccc1-c1cc(Nc2cc(CS(C)(=N)=O)cc(C)n2)ncn1 (single isomer, unassigned) [Example 8, 6-(4-Fluoro-2-methoxyphenyl)-N-{6-methyl-4-[(S-methylsulfonimidoyl)methyl]pyridin-2-yl}pyrimidin-4-amine]"
